Data published in PMC4573970, “Further validation to support clinical translation of [^18F]FTC-146 for imaging sigma-1 receptors” (EJNMMI Research, 2015).

What was measured:
sigma-1 receptor (S1R) = biological target: T1, sigma-1 receptor (S1R) (Mus musculus, UniProt O55242); experiment: in vivo PET blocking of […]FTC-146 ([…] mg/kg), with S1R-KO control; type: cell-based
T1 construct: gene Sigmar1; native receptor in WT mouse brain

[1] = biological target: T2, vesicular acetylcholine transporter (VAChT) (Homo sapiens, UniProt Q16572)
T2 construct: gene SLC18A3
T2 sequence (Q16572 1-532): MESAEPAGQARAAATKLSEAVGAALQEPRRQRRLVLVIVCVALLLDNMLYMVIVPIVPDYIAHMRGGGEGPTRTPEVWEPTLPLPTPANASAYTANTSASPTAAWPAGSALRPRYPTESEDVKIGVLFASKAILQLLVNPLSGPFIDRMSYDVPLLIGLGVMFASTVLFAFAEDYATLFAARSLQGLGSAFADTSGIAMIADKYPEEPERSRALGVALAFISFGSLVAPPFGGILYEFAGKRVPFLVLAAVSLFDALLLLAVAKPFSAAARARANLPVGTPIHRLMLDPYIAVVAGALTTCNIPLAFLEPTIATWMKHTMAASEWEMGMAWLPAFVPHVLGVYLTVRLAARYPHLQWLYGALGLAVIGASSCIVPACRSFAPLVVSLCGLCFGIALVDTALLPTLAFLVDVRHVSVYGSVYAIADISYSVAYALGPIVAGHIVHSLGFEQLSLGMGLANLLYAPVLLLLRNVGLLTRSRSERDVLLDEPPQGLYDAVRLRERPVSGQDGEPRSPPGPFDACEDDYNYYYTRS

T1 sequence (O55242 whole entry): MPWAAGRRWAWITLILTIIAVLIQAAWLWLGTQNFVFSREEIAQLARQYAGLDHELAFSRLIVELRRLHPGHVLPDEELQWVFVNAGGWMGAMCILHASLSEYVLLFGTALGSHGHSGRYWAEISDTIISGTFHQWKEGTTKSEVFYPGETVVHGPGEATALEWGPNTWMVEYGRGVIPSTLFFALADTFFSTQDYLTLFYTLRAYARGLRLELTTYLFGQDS

Row | Ki [1] | Compound | in vivo PET blocking of [18F]FTC-146 (1 mg/kg), with S1R-KO control (sigma-1 receptor (S1R))
1 |  | CN(C)CCN(C)CCc1ccc(Cl)c(Cl)c1 [BD1047] | following receptor blocking with a known S1R antagonist (BD-1047), showed similarly rapid washout of tracer
2 | 450 ± 80 nM | O=c1sc2cc(CCCF)ccc2n1CCN1CCCCCC1 [FTC-146] | 
